In patent US7241581B2, “Methods of identifying compounds that modulate IL-4 receptor-mediated IgE synthesis utilizing a c-MYC protein” (Rigel Pharmaceuticals, Inc., priority 2002, dated 2007):

Tests used:
[1] = tested on: endogenous germline α promoter; experiment: TAQMAN assay of endogenous germline α promoter transcription in ST486 cells; format: cell-based; settings: ST486 cells stimulated with TGF-β 40 ng/ml; average of 3 values
Procedure: The assay was similar to that described in the immediately preceding section, except that ST486 cells (ATCC # CRL-1647) engineered to express the tetracycline-regulated transactivator were infected and the infected cells were stimulated with TGF-β (40 ng/ml; Peprotech). The primers and probe, which are specific for the transcription product driven by the ST486 endogenous α promoter, were as follows (the probe was labeled at the 5′-end with Fam and at the 3′-end with Tamra): […]

[2] = tested on: endogenous germline ε promoter; experiment: TAQMAN assay of endogenous germline ε promoter transcription in A5T4 cells; format: cell-based, human; settings: relative expression units of +IL-4/+Dox to +IL-4/-Dox A5T4 cells; IL-4 60 U/ml, 3 days; average of 3 values
Procedure: The ability of peptide BR10A1 wt to inhibit transcription of an endogenous germline ε promoter was confirmed using a TAQMAN® assay (Roche Molecular, Alameda, Calif.). Briefly, A5T4 cells were infected with retrovirus capable of expressing peptide BR10A1 wt (prepared as described above). The cells were sorted for BFP^+ to select for infected cells. Infected cells were divided into two populations. One population was exposed to Dox (10 ng/ml). Both populations were stimulated with IL-4 (60 U/ml). After 3 days, the cells were pelleted and the pellets assayed for ε promoter transcription using a TAQMAN assay performed as described in Applied Biosystems Protocol 4310299 (available at http:www.appliedbiosystems.com). The primers and probe, which are specific for the transcription product driven by the A5T4 endogenous ε promoter, were as follows (the probe was labeled at the 5′-end with Fam and at the 3′-end with Tamra): […]

[3] = tested on: germline ε promoter; experiment: Functional profile of BR10A1 wt and mutants in the A5T4 reporter cell line; format: cell-based, human; settings: A5T4 reporter line
Procedure: Following infection, the library was enriched for cells expressing peptides that inhibit IL-4 induced ε transcription as generally outlined in the top half of FIG. 3 and sorted by FACS into single cell clones. The clones were then screened as generally illustrated in the lower half of FIG. 3. Briefly, for screening, each clone was divided into two populations and one population was treated with Dox (10 ng/ml). After 5 days, both populations were stimulated with IL-4 (final conc. 60 U/mL; PeptroTech, Inc.) and, after 3 more days, both populations were analyzed by FACS to measure BFP and GFP fluorescence. FACS data were converted to a “reporter ratio”, which is defined for this purpose as the ratio of the geometric mean of GFP fluorescence of the +IL-4/+Dox to the +IL-4/−Dox populations. Cells expressing a peptide that inhibits germline ε transcription have a reporter ratio of ≧1.1. A reporter ratio of ≧1.2 is indicative of strong inhibition.
(§1) The ability of peptide BR10A1 wt to inhibit germline ε transcription was confirmed in naive cells. Briefly, Phoenix cells were transfected with a retroviral vector encoding a BFP-BR10A1 wt peptide fusion as described in WO 99/58663 and WO 97/27213. Naïve A5T4 cells were infected with the resultant virions and grown for 3 days. The infected cells were stimulated with IL-4 (60 U/mL) and, after 3 days, the cells were assessed by FACS for BFP and GFP. […] The BFP fluorescence data corresponding to the BFP^+ and BFP^− populations are provided in Panel A. The GFP fluorescence data corresponding to the BFP^+ and BFP^− populations are presented in Panel B. The reporter ratio for this purpose is determined as the geometric mean of the GFP fluorescence of the BFP^− population divided by the geometric mean of the GFP fluorescence of the BFP^+ population. The reporter ratio for the BR10A1 in this re-infection assay was 1.27.
A collection of BR10A1 mutants was generated by replacing single or double amino acid residues in the sequence of BR10A1 wt with a different amino acid, typically an alanine or glycine, as described in copending application Ser. No.10/095,659, entitled Methods of Identifying Protein Targets, filed Mar. 8, 2002 . The functional profiles for the mutants derived from BR10A1 wt was obtained by constructing and screening for activity in the A5T4 reporter cell line in the manner described above. The activity of each mutant at the germline ε promoter is reflected in the reporter ratio as described above. The reporter ratios were the functional values that were used to develop the functional profiles. Measurement of the reporter ratios of the mutant peptides was carried out in a number of separate experiments, each time comparing the value of cells transfected with mutant peptide to that of cells transfected with control WT peptide done at the same time. The reporter ratios of the control WT peptide can vary depending upon a number of factors including the infectivity or the state of the infected cells at the time of infection.
TABLE 2 depicts the amino acid sequences (the dual alanine mutations are underlined) of the mutants tested and the measured reporter ratios when screening in the A5T4 reporter line.
Comparison of the interaction and functional profiles was performed by categorizing the mutants of BR10A1 based on the functional and interaction assays. Based on the reporter ratio, each mutant was categorized into one of four functional categories: (1) reduction of function (ROF); (2) loss of function (LOF); (3) increase of function (IOF) or (4) functionally neutral (N) as compared to the activity of the wild type peptide, here BR10A1 wt. As mentioned previously, cells expressing a peptide that inhibits germline ε transcription have reporter ratios of ≧1.1. Cells expressing a loss of function (LOF) mutant have a reporter ratio of <1.11. […] Functionally neutral mutants have reporter ratios that fall within ±50% of that of the BR10A1 wt peptide. […]

[4] = tested on: IL-4 induced germline ε transcription; experiment: Re-infection assay in naive A5T4 cells (BFP- vs BFP+ populations, GFP by FACS); format: cell-based, human; settings: geometric mean GFP fluorescence of BFP- population divided by BFP+ population, IL-4 60 U/mL, 3 days
Procedure: as §1

MQRRESCITRSVEEGWGLFYLGP (peptide encoded by random oligo-BR10A1wt) [wild-type peptide from random library, expressed in cells as BFP-peptide fusion]
endogenous α inhibition ratio [1]: 0.87
endogenous ε inhibition ratio [2]: 2.18
Reporter Ratio ([3]; first value column (separate experiment with its own WT control)): 1.27
Reporter Ratio ([3]; fourth value column (separate experiment with its own WT control)): 1.35
Reporter Ratio ([3]; second value column (separate experiment with its own WT control)): 1.36
Reporter Ratio ([3]; separate experiment with its own WT control): 1.55
Reporter Ratio [4]: 1.27
